The record followed here is US10300051B2, “Cyclopropylamines as LSD1 inhibitors” (priority 2014, dated 2019).

Some results are limits rather than exact numbers.

By IC50 is commonly meant the midpoint of a concentration-inhibition curve. Read a high IC50 as weaker potency.

The target of the first assay is LSD-1 enzyme (Homo sapiens (Human), UniProt O60341). The assay is classed as biochemical.
Details: not given
As to the method: Example A: LSD1 Histone Demethylase Biochemical Assay
LANCE LSD1/KDM1A demethylase assay—10 μL of 1 nM LSD-1 enzyme (ENZO BML-SE544-0050) in the assay buffer (50 mM Tris, pH 7.5, 0.01% Tween-20, 25 mM NaCl, 5 mM DTT) were preincubated for 1 hour at 25° C. with 0.8 μL compound/DMSO dotted in black 384 well polystyrene plates. […] Reactions were stopped by addition of 10 μL 1× LANCE Detection Buffer (PerkinElmer CR97-100) supplemented with 1.5 nM Eu-anti-unmodified H3K4 Antibody (PerkinElmer TRF0404), and 225 nM LANCE Ultra Streptavidin (PerkinElmer TRF102) along with 0.9 mM Tranylcypromine-HCl (Millipore 616431). After stopping the reactions plates were incubated for 30 minutes and read on a PHERAstar FS plate reader (BMG Labtech).
For the compound `CN(C)CC(=O)N1CCC(CN[C@@H]2C[C@H]2c2ccccc2)(Cc2cccc(C#N)c2)CC1` [Example 57, 3-{[1-[(dimethylamino)acetyl]-4-({[(1R,2S)-2-phenylcyclopropyl]amino}methyl)piperidin-4-yl]methyl}benzonitrile], the concentration for half-maximal inhibition (IC50) was less than 100 nM.

The assay is the same for the next values; noted with them: 1 nM LSD-1 enzyme, 1 hour preincubation at 25° C., Biotin-labeled Histone H3 peptide substrate.
As for `Fc1ccc(CC2(CN[C@@H]3C[C@H]3c3ccccc3)CCNCC2)cc1` [Example 11, (1R,2S)—N-{[4-(4-fluorobenzyl)piperidin-4-yl]methyl}-2-phenylcyclopropanamine], the IC50 was less than 100 nM.

`O=C(O)CCN1CCC(CN[C@@H]2C[C@H]2c2ccccc2)(Cc2cccc(F)c2)CC1` [Example 17, 3-[4-(3-fluorobenzyl)-4-({[(1R,2S)-2-phenylcyclopropyl]amino}methyl)piperidin-1-yl]propanoic Acid] yielded an IC50 of less than 100 nM. Same read-out and setting: under `O=C(O)c1cccc(CC2(CN[C@@H]3C[C@H]3c3ccccc3)CCN(CC3CC3)CC2)c1` [Example 30, 3-{[1-(cyclopropylmethyl)-4-({[(1R,2S)-2-phenylcyclopropyl]amino}methyl)piperidin-4-yl]methyl}benzoic Acid] stands less than 100 nM; under `O=C(O)CCN1CCC(CN[C@@H]2C[C@H]2c2ccccc2)(Cc2ccc(F)cn2)CC1` [Example 54, 3-[4-[(5-fluoropyridin-2-yl)methyl]-4-({[(1R,2S)-2-phenylcyclopropyl]amino}methyl)piperidin-1-yl]propanoic Acid], less than 100 nM. As to `COc1cccc(CC2(CN[C@@H]3C[C@H]3c3ccccc3)CCN(CCC(=O)O)CC2)c1` [Example 59, 3-[4-(3-methoxybenzyl)-4-({[(1R,2S)-2-phenylcyclopropyl]amino}methyl)piperidin-1-yl]propanoic Acid], the IC50 is less than 100 nM. `N#CCc1ccc(CC2(CN[C@@H]3C[C@H]3c3ccccc3)CCN(CCC(=O)O)CC2)cc1` [Example 25, 3-[4-[4-(cyanomethyl)benzyl]-4-({[(1R,2S)-2-phenylcyclopropyl]amino}methyl)piperidin-1-yl]propanoic Acid] registered an IC50 of less than 100 nM. On the same count and under the same terms, under `CN(C)C(=O)N1CCC(CC#N)(CN[C@@H]2C[C@H]2c2ccccc2)CC1` (relative stereo) [Example 3, 4-(Cyanomethyl)-N,N-dimethyl-4-{[(trans-2-phenylcyclopropyl)amino]methyl}piperidine-1-carboxamide] stands less than 100 nM. Still for that read-out and setting: under `COCC1(CN[C@@H]2C[C@H]2c2ccccc2)CCNCC1` [Example 21, (1R,2S)—N-{[4-(methoxymethyl)piperidin-4-yl]methyl}-2-phenylcyclopropanamine] stands less than 100 nM; under `CC(C)N1CCC(CN[C@@H]2C[C@H]2c2ccccc2)(Cc2cccc(C(=O)O)c2)CC1` [Example 34, 3-{[1-isopropyl-4-({[(1R,2S)-2-phenylcyclopropyl]amino}methyl)piperidin-4-yl]methyl}benzoic Acid], less than 100 nM; under `N#CCC1(CN[C@@H]2C[C@H]2c2ccccc2)CCN(Cc2cccnc2)CC1` (relative stereo) [Example 7, [4-{[(trans-2-Phenylcyclopropyl)amino]methyl}-1-(pyridin-3-ylmethyl)piperidin-4-yl]acetonitrile], less than 100 nM. Turning to `Fc1ccc(CC2(CN[C@H]3C[C@@H]3c3ccccc3)CCNCC2)cc1` [Example 12, (1S,2R)—N-{[4-(4-fluorobenzyl)piperidin-4-yl]methyl}-2-phenylcyclopropanamine], the IC50 is less than 100 nM. Same read-out and setting: under `N#Cc1ccccc1OCC1(CN[C@@H]2C[C@H]2c2ccccc2)CCN(CCC(=O)O)CC1` [Example 43, 3-[4-[(2-cyanophenoxy)methyl]-4-({[(1R,2S)-2-phenylcyclopropyl]amino}methyl)piperidin-1-yl]propanoic Acid] stands less than 100 nM; under `COCC1(CN[C@@H]2C[C@H]2c2ccccc2)CCN(CCC(=O)N(C)C)CC1` [Example 23, 3-[4-(methoxymethyl)-4-({[(1R,2S)-2-phenylcyclopropyl]amino}methyl)piperidin-1-yl]-N,N-dimethylpropanamide], less than 100 nM. The compound `COCC1(CN[C@@H]2C[C@H]2c2ccccc2)CCN(C(=O)CN2CCOCC2)CC1` [Example 61, (1R,2S)—N-{[4-(methoxymethyl)-1-(morpholin-4-ylacetyl)piperidin-4-yl]methyl}-2-phenylcyclopropanamine] came in with an IC50 of less than 100 nM. Same read-out and setting: under `O=C(O)CCN1CCC(CN[C@@H]2C[C@H]2c2ccccc2)(COc2ccccc2F)CC1` [Example 37, 3-[4-[(2-fluorophenoxy)methyl]-4-({[(1R,2S)-2-phenylcyclopropyl]amino}methyl)piperidin-1-yl]propanoic Acid] stands less than 100 nM; under `COCC1(CN[C@@H]2C[C@H]2c2ccccc2)CCN(CCC(=O)O)CC1` [Example 22, 3-[4-(methoxymethyl)-4-({[(1R,2S)-2-phenylcyclopropyl]amino}methyl)piperidin-1-yl]propanoic Acid], less than 100 nM; under `CN1CCC(CN[C@@H]2C[C@H]2c2ccccc2)(Cc2cccc(C(=O)O)c2)CC1` [Example 28, 3-{[1-methyl-4-({[(1R,2S)-2-phenylcyclopropyl]amino}methyl)piperidin-4-yl]methyl}benzoic Acid], less than 100 nM. On the same count and under the same terms, under `O=C(O)CCN1CCC(CN[C@@H]2C[C@H]2c2ccccc2)(Cc2cccc(F)c2F)CC1` [Example 19, 3-[4-(2,3-difluorobenzyl)-4-({[(1R,2S)-2-phenylcyclopropyl]amino}methyl)piperidin-1-yl]propanoic Acid] stands less than 100 nM. The same measure, in the same setting: under `CN(C)CC(=O)N1CCC(CN[C@@H]2C[C@H]2c2ccccc2)(Cc2cccc(C(N)=O)c2)CC1` [Example 58, 3-{[1-[(dimethylamino)acetyl]-4-({[(1R,2S)-2-phenylcyclopropyl]amino}methyl)piperidin-4-yl]methyl}benzamide] stands less than 100 nM. With `O=C(O)CCN1CCC(CN[C@@H]2C[C@H]2c2ccccc2)(COC2CCCCC2)CC1` [Example 53, 3-[4-[(cyclohexyloxy)methyl]-4-({[(1R,2S)-2-phenylcyclopropyl]amino}methyl)piperidin-1-yl]propanoic Acid], the IC50 is less than 100 nM. For `N#CC1(c2ccc(CC3(CN[C@@H]4C[C@H]4c4ccccc4)CCN(CCC(=O)O)CC3)cc2)CC1` [Example 26, 3-[4-[4-(1-cyanocyclopropyl)benzyl]-4-({[(1R,2S)-2-phenylcyclopropyl]amino}methyl)piperidin-1-yl]propanoic Acid], the IC50 is less than 100 nM.

Turning to `CNC(=O)CCN1CCC(CN[C@@H]2C[C@H]2c2ccccc2)(COC)CC1` [Example 24, 3-[4-(methoxymethyl)-4-({[(1R,2S)-2-phenylcyclopropyl]amino}methyl)piperidin-1-yl]-N-methylpropanamide], the IC50 was less than 100 nM. Regarding `CN1CCC(CC#N)(CN[C@@H]2C[C@H]2c2ccccc2)CC1` (relative stereo) [Example 5, (1-Methyl-4-{[(trans-2-phenylcyclopropyl)amino]methyl}piperidin-4-yl)acetonitrile], the IC50 was less than 100 nM. The same measure, in the same setting: under `N#Cc1ccc(CC2(CN[C@@H]3C[C@H]3c3ccccc3)CCN(CCC(=O)O)CC2)c(F)c1` [Example 42, 3-[4-(4-cyano-2-fluorobenzyl)-4-({[(1R,2S)-2-phenylcyclopropyl]amino}methyl)piperidin-1-yl]propanoic Acid] stands less than 100 nM; under `O=C(O)CCN1CCC(CN[C@@H]2C[C@H]2c2ccccc2)(COCc2ccccc2)CC1` [Example 40, 3-[4-[(benzyloxy)methyl]-4-({[(1R,2S)-2-phenylcyclopropyl]amino}methyl)piperidin-1-yl]propanoic Acid], less than 100 nM. Still for that read-out and setting: under `O=C(O)CCN1CCC(CN[C@@H]2C[C@H]2c2ccccc2)(Cc2cccc(OC3CCOCC3)c2)CC1` [Example 36, 3-{4-({[(1R,2S)-2-phenylcyclopropyl]amino}methyl)-4-[3-(tetrahydro-2H-pyran-4-yloxy)benzyl]piperidin-1-yl}propanoic Acid] stands less than 100 nM.

In turn, `N#CCCN1CCC(CN[C@@H]2C[C@H]2c2ccccc2)(Cc2cccc(C(=O)O)c2)CC1` [Example 56, 3-{[1-(2-cyanoethyl)-4-({[(1R,2S)-2-phenylcyclopropyl]amino}methyl)piperidin-4-yl]methyl}benzoic Acid] had an IC50 of less than 100 nM. Still for that read-out and setting: under `N#Cc1ccc(OCC2(CN[C@@H]3C[C@H]3c3ccccc3)CCN(CCC(=O)O)CC2)cc1` [Example 44, 3-[4-[(4-cyanophenoxy)methyl]-4-({[(1R,2S)-2-phenylcyclopropyl]amino}methyl)piperidin-1-yl]propanoic Acid] stands less than 100 nM; under `CS(=O)(=O)N1CCC(CC#N)(CN[C@@H]2C[C@H]2c2ccccc2)CC1` (relative stereo) [Example 4, (1-(Methylsulfonyl)-4-{[(trans-2-phenylcyclopropyl)amino]methyl}piperidin-4-yl)acetonitrile], less than 100 nM; under `Cn1cc(-c2cccc(CC3(CN[C@@H]4C[C@H]4c4ccccc4)CCN(CCC(=O)O)CC3)c2)cn1` [Example 27, 3-[4-[3-(1-methyl-1H-pyrazol-4-yl)benzyl]-4-({[(1R,2S)-2-phenylcyclopropyl]amino}methyl)piperidin-1-yl]propanoic Acid], less than 100 nM. With `CCOc1cccc(CC2(CN[C@@H]3C[C@H]3c3ccccc3)CCN(CCC(=O)O)CC2)c1` [Example 60, 3-[4-(3-ethoxybenzyl)-4-({[(1R,2S)-2-phenylcyclopropyl]amino}methyl)piperidin-1-yl]propanoic Acid], the IC50 was less than 100 nM.
